Results taken from ChEMBL document CHEMBL1135005, “Synthesis and biological evaluation of aristolactams” (Bioorg Med Chem Lett, 2002).

system: L1210; assay: In vitro cytotoxic activity against L1210 murine leukemia cells; assay type: functional, cell-based; settings: Mus musculus

Going from `COc1cc2c3c(cc4cc(OC)c(OCc5ccccc5)c(OC)c4c3c1)N(C)C2=O` to `COc1cc2c3c(cc4cc(OC)c(OCc5ccccc5)c(OC)c4c3c1)N(CCC=O)C2=O`, the IC50 falls from over 10 µM to 4.7 µM. The second is the more potent here.

`COc1ccc(CN2C(=O)c3cc(OCc4ccccc4)cc4c3c2cc2cc(OC)c(OCc3ccccc3)c(OC)c24)cc1` and `COc1ccc(CN2C(=O)c3cc(OC)cc4c3c2cc2cc(OC)c(OC)c(OC)c24)cc1` cannot be ordered by IC50: over 100 µM for the first, over 10 µM for the second.

Compared with `COc1cc2c3c(cc4cc(OC)c(O)c(OC)c4c3c1)N(C)C2=O`, `COc1cc2c3c(cc4cc(OC)c(O)c(OC)c4c3c1)N(CCCN(C)C)C2=O` is 3.4-fold higher in IC50: 1.6 µM for the first, 5.4 µM for the second. The first is the more potent here.

First: COc1cc2c3c(cc4ccc(O)cc4c3c1)N(CCCN(C)C)C2=O
Second: COc1ccc2cc3c4c(cc(OC)cc4c2c1)C(=O)N3CCC=O
The IC50 of the first is 3.2-fold lower: 1.6 µM for the first, 5.2 µM for the second.

Going from `COc1cc2cc3c4c(cccc4c2c(OC)c1O)C(=O)N3CCCCN(C)C` to `COc1cc2cc3c4c(cccc4c2c(OC)c1OCc1ccccc1)C(=O)N3CCCCN(C)C`, the IC50 rises from 1.8 µM to 10.8 µM (6-fold). The first is the more potent here.

`CCN(CC)CCN1C(=O)c2cc(OC)cc3c2c1cc1cc(OC)c(O)c(OC)c13` and `COc1ccc(CN2C(=O)c3cc(O)cc4c3c2cc2cc(OC)c(O)c(OC)c24)cc1` are within 1.5-fold of each other in IC50: 2.3 µM for the first, 2.6 µM for the second.

`CCOC(CCCN1C(=O)c2cccc3c2c1cc1cc(OC)c(OCc2ccccc2)c(OC)c13)OCC` and `COc1cc2cc3c4c(cccc4c2c(OC)c1OCc1ccccc1)C(=O)N3CCCC=O` are within 1.5-fold of each other in IC50: 21.2 µM for the first, 17.6 µM for the second.

`CCOC(CCN1C(=O)c2cc(OC)cc3c2c1cc1ccc(OC)cc13)OCC` and `COc1ccc(CN2C(=O)c3cc(OC)cc4c3c2cc2cc(OC)ccc24)cc1` cannot be ordered by IC50: over 10 µM for the first, 66.6 µM for the second.

Compared with `COc1cc2c(cc3c4c(cc5c(c42)OCO5)C(=O)N3CCCN(C)C)c(OC)c1OC(C)C`, `COc1cc2c(cc3c4c(cc5c(c42)OCO5)C(=O)N3CCC=O)c(OC)c1OC(C)C` is 1.8-fold higher in IC50: 4.3 µM for the first, 7.8 µM for the second. The first is the more potent here.

Going from `CN1C(=O)c2ccc(OCc3ccccc3)c3c2c1cc1cc(OCc2ccccc2)ccc13` to `CCOC(CCN1C(=O)c2cc3c(c4c2c1cc1c(OC)c(OC(C)C)c(OC)cc14)OCO3)OCC`, the IC50 falls from 79.2 µM to 16.3 µM (4.9-fold).
